Results: the supplement of paper PMC11061612

Columns and labels:
Assay in all cases: Bliss excess, mean over the matrix (fraction); higher = more synergy
[1] = tested on: MOLP-8 (Plasma Cell Myeloma)
In short: (§1)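 Bliss excess equals the observed combination effect minus the expected value EA + EB − EA·EB, where EA and EB are the effects of each agent alone. Combination Emax is the second-highest inhibition within the matrix. Inhibition was scaled from CellTiter-Glo 2.0 luminescence, with 0 set by vehicle wells and 1 by blank wells, after 72 hours of two-drug dosing of cells plated in 1536-well plates.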

[2] = tested on: NCI-H1876 (Small Cell Lung Carcinoma)
In short: as §1

[3] = tested on: C-33-A (Cervical Carcinoma)
In short: as §1

NCI-H2373 (Mesothelioma) = tested on: NCI-H2373 (Mesothelioma)
In short: as §1

[4] = tested on: MONO-MAC-6 (Acute Myeloid Leukemia)
In short: as §1

[5] = tested on: MDA-MB-415 (Breast Carcinoma)
In short: as §1

ES6 (Ewing's Sarcoma) = tested on: ES6 (Ewing's Sarcoma)
In short: as §1

[6] = tested on: COR-L88 (Small Cell Lung Carcinoma)
In short: as §1

[7] = tested on: MOLT-13 (T-Lymphoblastic Leukemia)
In short: as §1

[8] = tested on: CPC-N (Small Cell Lung Carcinoma)
In short: as §1

[9] = tested on: OVCAR-3 (Ovarian Carcinoma)
In short: as §1

[10] = tested on: DBTRG-05MG (Glioblastoma)
In short: as §1

[11] = tested on: RCC-JW (Kidney Carcinoma)
In short: as §1

[12] = tested on: P32-ISH (Burkitt's Lymphoma)
In short: as §1

[13] = tested on: NCI-H3118 (Head and Neck Carcinoma)
In short: as §1

[14] = tested on: SUP-M2 (T-Cell Non-Hodgkin's Lymphoma)
In short: as §1

[15] = tested on: SiHa (Cervical Carcinoma)
In short: as §1

[16] = tested on: LS-1034 (Colorectal Carcinoma)
In short: as §1

[17] = tested on: ZR-75-30 (Breast Carcinoma)
In short: as §1

[18] = tested on: MS-1 (Small Cell Lung Carcinoma)
In short: as §1

Row | SMILES | Bliss excess [1] | Bliss excess [2] | Bliss excess [3] | Bliss excess (NCI-H2373 (Mesothelioma)) | Bliss excess [4] | Bliss excess [5] | Bliss excess (ES6 (Ewing's Sarcoma)) | Bliss excess [6] | Bliss excess [7] | Bliss excess [8] | Bliss excess [9] | Bliss excess [10] | Bliss excess [11] | Bliss excess [12] | Bliss excess [13] | Bliss excess [14] | Bliss excess [15] | Bliss excess [16] | Bliss excess [17] | Bliss excess [18]
1 | Cc1cc2ncnn2cc1Nc1ncc2c(n1)n(C1CCOCC1)c(=O)n2C [AZD7648] + O=C(c1cc(Cc2n[nH]c(=O)c3ccccc23)ccc1F)N1CCN(C(=O)C2CC2)CC1 [Olaparib] (first compound max 10 µM, 7x7, partner max 10 µM) | -0.0267 | 0.0216 | -0.0107 | 0.0234 | -0.0146 | -0.0121 | -0.0341 | -0.0432 | 0.0242 | 0.0169 | -0.0257 | -0.0477 | -0.0795 | -0.0413 | -0.0223 | 0.0721 | -0.0389 | -0.0353 | -0.0469 | -0.0087
2 | CCN(CCO)CCCOc1ccc2c(Nc3cc(CC(=O)Nc4cccc(F)c4)[nH]n3)ncnc2c1 [AZD2811] + C=CCn1c(=O)c2cnc(Nc3ccc(N4CCN(C)CC4)cc3)nc2n1-c1cccc(C(C)(C)O)n1 [AZD1775] (first compound max 1 µM, partner max 1 µM) | 0.0185 | -0.0318 | 0.0111 | -0.0482 | 0.0263 | -0.0152 | -0.0792 | -0.0099 | 0.0166 | -0.0239 | -0.0154 | -0.0402 | -0.0118 | -0.0336 | -0.0798 | -0.036 | 0.0089 | 0.0033 | -0.0422 | -0.0205
3 | CC1(C)CCC(CN2CCN(c3ccc(C(=O)NS(=O)(=O)c4ccc(NCC5CCOCC5)c([N+](=O)[O-])c4)c(Oc4cnc5[nH]ccc5c4)c3)CC2)=C(c2ccc(Cl)cc2)C1 [Venetoclax] + Cc1cc2ncnn2cc1Nc1ncc2c(n1)n(C1CCOCC1)c(=O)n2C [AZD7648] (first compound max 1 µM, 7x7, partner max 10 µM) | 0.0222 | 0.0111 | -0.0032 | -0.056 | -0.025 | -0.117 | -0.0359 | -0.0121 | 0.063 | -0.0219 | -0.0259 | -0.0224 | -0.0431 | -0.0154 | -0.0369 | 0.0218 | -0.0549 | -0.0323 | -0.0381 | 0.0008
4 | Cc1cc2ncnn2cc1Nc1ncc2c(n1)n(C1CCOCC1)c(=O)n2C [AZD7648] + CCN(CCO)CCCOc1ccc2c(Nc3cc(CC(=O)Nc4cccc(F)c4)[nH]n3)ncnc2c1 [AZD2811] (first compound max 10 µM, 7x7, partner max 1 µM) | 0.0616 | -0.074 | 0.045 | -0.034 | 0.0123 | -0.002 | -0.0042 | 0.0077 | -0.0152 | -0.0306 | 0.0046 | -0.0028 | -0.011 | -0.0367 | 0.0241 | -0.0267 | 0.0278 | 0.0104 | -0.0449 | 0.0104
5 | CN(CCO)CC[C@H](CSc1ccccc1)Nc1ccc(S(=O)(=O)NC(=O)c2ccc(N3CCC([C@@H](O)c4ccccc4-c4ccc(Cl)cc4)CC3)cc2)cc1S(=O)(=O)C(F)(F)F [AZD4320] + Cc1cc2ncnn2cc1Nc1ncc2c(n1)n(C1CCOCC1)c(=O)n2C [AZD7648] (first compound max 1 µM, 7x7, partner max 10 µM) | -0.0125 | 0.0162 | -0.0164 | -0.0389 | 0.0106 | -0.0243 | -0.0494 | 0.0052 | 0.0309 | 0.0364 | -0.0521 | -0.0015 | -0.0476 | 0.0076 | -0.0392 | 0.036 | -0.0385 | -0.0403 | -0.0359 | -0.0409
6 | CCN(CCO)CCCOc1ccc2c(Nc3cc(CC(=O)Nc4cccc(F)c4)[nH]n3)ncnc2c1 [AZD2811] + O=C(c1cc(Cc2n[nH]c(=O)c3ccccc23)ccc1F)N1CCN(C(=O)C2CC2)CC1 [Olaparib] (first compound max 1 µM, 7x7, partner max 10 µM) | 0.0384 | -0.114 | -0.0108 | 0.0244 | 0.0056 | 0.0059 | -0.0457 | -0.0475 | -0.0146 | -0.0238 | -0.0051 | -0.0179 | -0.0021 | -0.035 | 0.0075 | -0.0429 | -0.0053 | -0.0253 | -0.0225 | 0.0107
7 | COc1nnc2ccc(N3CCC(c4ccc(OCCN5CCN(C)C(=O)[C@H]5C)cc4)CC3)nn12 [AZD5153] + Cc1c2c(nn1C)CSCc1cc(n(C)n1)CSc1cc(c3ccccc3c1)OCCCc1c(C(=O)O)n(C)c3c-2c(Cl)ccc13 [AZD5991] (first compound max 1 µM, 7x7, partner max 1 µM) | -0.0051 | 0.157 | 0.0124 | -0.0104 | 0.0451 | 0.031 | -0.0033 | 0.0848 | -0.0503 | 0.0163 | 0.0003 | -0.0296 | -0.0078 | -0.0108 | -0.0602 | -0.0372 | -0.0237 | -0.0569 | 0.0034 | -0.0151
